Results taken from PubChem BioAssay AID2060625 (Molecular Pharmacology Branch, DTP, NCI, 2025).

System: 186277-243-T-J2-PDC spheroids with HUVEC/MSC, viability
Assay: Anticancer human tumor 186277-243-T-J2-PDC patient-derived colon adenocarcinoma cell line growth inhibition [CLK]
Conditions: for IC50: curve of first compound; for viability, T/C: stronger effect = lower value
Method in brief: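 Multi-cell-type spheroids combined patient-derived tumor cells with HUVEC endothelial cells and human mesenchymal stem cells. Paired agents were dosed in half-log steps down from about clinical Cmax, or from 10 microM where Cmax was unknown.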

[1] = second compound 0.0316 µM, first compound 0.0316 µM
[2] = second compound 0.0316 µM, first compound 0.1 µM
[3] = second compound 0.0316 µM, first compound 0.316 µM
[4] = second compound 0.0316 µM, first compound 1 µM
[5] = second compound 0.0316 µM, first compound 3.16 µM
[6] = second compound 0.0316 µM, first compound 10 µM
[7] = second compound 0.1 µM, first compound 0.0316 µM
[8] = second compound 0.1 µM, first compound 0.1 µM
[9] = second compound 0.1 µM, first compound 0.316 µM
[10] = second compound 0.1 µM, first compound 1 µM
[11] = second compound 0.1 µM, first compound 3.16 µM
[12] = second compound 0.1 µM, first compound 10 µM
[13] = second compound 0.316 µM, first compound 0.0316 µM
[14] = second compound 0.316 µM, first compound 0.1 µM
[15] = second compound 0.316 µM, first compound 0.316 µM
[16] = second compound 0.316 µM, first compound 1 µM
[17] = second compound 0.316 µM, first compound 3.16 µM
[18] = second compound 0.316 µM, first compound 10 µM
[19] = second compound 1 µM, first compound 0.0316 µM
[20] = second compound 1 µM, first compound 0.1 µM
[21] = second compound 1 µM, first compound 0.316 µM
[22] = second compound 1 µM, first compound 1 µM
[23] = second compound 1 µM, first compound 3.16 µM
[24] = second compound 1 µM, first compound 10 µM
[25] = second compound 3.16 µM, first compound 0.0316 µM
[26] = second compound 3.16 µM, first compound 0.1 µM
[27] = second compound 3.16 µM, first compound 0.316 µM
[28] = second compound 3.16 µM, first compound 1 µM
[29] = second compound 3.16 µM, first compound 3.16 µM
[30] = second compound 3.16 µM, first compound 10 µM
[31] = second compound 10 µM, first compound 0.0316 µM
[32] = second compound 10 µM, first compound 0.1 µM
[33] = second compound 10 µM, first compound 0.316 µM
[34] = second compound 10 µM, first compound 1 µM
[35] = second compound 10 µM, first compound 3.16 µM
[36] = second compound 10 µM, first compound 10 µM
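Note: compound exposure lasted seven days before readout.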
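Throughout, for viability, T/C: 100% = DMSO vehicle control wells.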

Which results are given for CC1COCCN1c1cc(C2(S(C)(=N)=O)CC2)nc(-c2ccnc3[nH]ccc23)n1 (stereo unspecified) + CNC(=O)c1ccc(Nc2nc(OC3CCCC3)c3c(-c4ccc5nc(C)oc5c4)c[nH]c3n2)c(OC)c1?
IC50 (second compound 0.0316 µM): 2510 nM; IC50 (second compound 0.1 µM): 1420 nM; IC50 (second compound 0.316 µM): 400 nM; IC50 (second compound 1 µM): < 31.6 nM; IC50 (second compound 3.16 µM): < 31.6 nM; IC50 (second compound 10 µM): < 31.6 nM; viability, T/C [1]: 109%; viability, T/C [2]: 109%; viability, T/C [3]: 105%; viability, T/C [4]: 114%; viability, T/C [5]: 35%; viability, T/C [6]: 13%; viability, T/C [7]: 80.7%; viability, T/C [8]: 77.5%; viability, T/C [9]: 78.7%; viability, T/C [10]: 60%; viability, T/C [11]: 26.6%; viability, T/C [12]: 13.7%; viability, T/C [13]: 55.8%; viability, T/C [14]: 57%; viability, T/C [15]: 51.5%; viability, T/C [16]: 39%; viability, T/C [17]: 15.8%; viability, T/C [18]: 10.5%; viability, T/C [19]: 35.6%; viability, T/C [20]: 33.4%; viability, T/C [21]: 31.2%; viability, T/C [22]: 22.9%; viability, T/C [23]: 10.2%; viability, T/C [24]: 5.07%; viability, T/C [25]: 33.9%; viability, T/C [26]: 31.6%; viability, T/C [27]: 28.9%; viability, T/C [28]: 21.6%; viability, T/C [29]: 12.2%; viability, T/C [30]: 5.1%; viability, T/C [31]: 34.5%; viability, T/C [32]: 35.6%; viability, T/C [33]: 33%; viability, T/C [34]: 24.9%; viability, T/C [35]: 13%; viability, T/C [36]: 7.43%

Which results are given for Cn1ncnc1[C@H]1c2n[nH]c(=O)c3cc(F)cc(c23)N[C@@H]1c1ccc(F)cc1 + CN1CCN(c2cc(C(=O)Nc3cc4cc(-c5cnn(C)c5)ccc4cn3)ccn2)CC1?
IC50 (second compound 0.0316 µM): > 100 nM; IC50 (second compound 0.1 µM): > 100 nM; IC50 (second compound 0.316 µM): < 0.316 nM; IC50 (second compound 1 µM): < 0.316 nM; IC50 (second compound 3.16 µM): < 0.316 nM; IC50 (second compound 10 µM): < 0.316 nM; viability, T/C (second compound 0.0316 µM, first compound 0.000316 µM): 86.9%; viability, T/C (second compound 0.0316 µM, first compound 0.001 µM): 104%; viability, T/C (second compound 0.0316 µM, first compound 0.00316 µM): 108%; viability, T/C (second compound 0.0316 µM, first compound 0.01 µM): 114%; viability, T/C [1]: 95.1%; viability, T/C [2]: 113%; viability, T/C (second compound 0.1 µM, first compound 0.000316 µM): 73.9%; viability, T/C (second compound 0.1 µM, first compound 0.001 µM): 75.6%; viability, T/C (second compound 0.1 µM, first compound 0.00316 µM): 69%; viability, T/C (second compound 0.1 µM, first compound 0.01 µM): 82.6%; viability, T/C [7]: 69.8%; viability, T/C [8]: 58.6%; viability, T/C (second compound 0.316 µM, first compound 0.000316 µM): 20.9%; viability, T/C (second compound 0.316 µM, first compound 0.001 µM): 19.2%; viability, T/C (second compound 0.316 µM, first compound 0.00316 µM): 22.7%; viability, T/C (second compound 0.316 µM, first compound 0.01 µM): 20%; viability, T/C [13]: 21.9%; viability, T/C [14]: 19.8%; viability, T/C (second compound 1 µM, first compound 0.000316 µM): 2.81%; viability, T/C (second compound 1 µM, first compound 0.001 µM): 0.25%; viability, T/C (second compound 1 µM, first compound 0.00316 µM): 0.86%; viability, T/C (second compound 1 µM, first compound 0.01 µM): 2.93%; viability, T/C [19]: 1.61%; viability, T/C [20]: 0.53%; viability, T/C (second compound 3.16 µM, first compound 0.000316 µM): 2.49%; viability, T/C (second compound 3.16 µM, first compound 0.001 µM): 0.69%; viability, T/C (second compound 3.16 µM, first compound 0.00316 µM): 1.36%; viability, T/C (second compound 3.16 µM, first compound 0.01 µM): 1.46%; viability, T/C [25]: 2.26%; viability, T/C [26]: 0.62%; viability, T/C (second compound 10 µM, first compound 0.000316 µM): 1.78%; viability, T/C (second compound 10 µM, first compound 0.001 µM): 0.48%; viability, T/C (second compound 10 µM, first compound 0.00316 µM): 0.42%; viability, T/C (second compound 10 µM, first compound 0.01 µM): 0.58%; viability, T/C [31]: 0.53%; viability, T/C [32]: 0.46%

What does the source list for Nc1ccccc1NC(=O)c1ccc(CNC(=O)OCc2cccnc2)cc1 + CN1CCN(c2cc(C(=O)Nc3cc4cc(-c5cnn(C)c5)ccc4cn3)ccn2)CC1?
IC50 (second compound 0.0316 µM): 3730 nM; IC50 (second compound 0.1 µM): 1550 nM; IC50 (second compound 0.316 µM): < 31.6 nM; IC50 (second compound 1 µM): < 31.6 nM; IC50 (second compound 3.16 µM): < 31.6 nM; IC50 (second compound 10 µM): < 31.6 nM; viability, T/C [1]: 110%; viability, T/C [2]: 90.6%; viability, T/C [3]: 92.7%; viability, T/C [4]: 101%; viability, T/C [5]: 57%; viability, T/C [6]: 7.85%; viability, T/C [7]: 84.4%; viability, T/C [8]: 78%; viability, T/C [9]: 77.3%; viability, T/C [10]: 65.3%; viability, T/C [11]: 25.8%; viability, T/C [12]: 2.96%; viability, T/C [13]: 22.3%; viability, T/C [14]: 19.1%; viability, T/C [15]: 15.2%; viability, T/C [16]: 15.9%; viability, T/C [17]: 2.42%; viability, T/C [18]: 1.03%; viability, T/C [19]: 1.13%; viability, T/C [20]: 1.4%; viability, T/C [21]: 0.97%; viability, T/C [22]: 1.21%; viability, T/C [23]: 1.83%; viability, T/C [24]: 0.7%; viability, T/C [25]: 1.82%; viability, T/C [26]: 1.26%; viability, T/C [27]: 0.87%; viability, T/C [28]: 2.2%; viability, T/C [29]: 1.61%; viability, T/C [30]: 0.94%; viability, T/C [31]: 1.7%; viability, T/C [32]: 0.57%; viability, T/C [33]: 0.67%; viability, T/C [34]: 2.12%; viability, T/C [35]: 2.19%; viability, T/C [36]: 0.39%
